In patent US9120728B2, “Modulators of cortical dopaminergic- and NMDA-receptor-mediated glutamatergic neurotransmission” (INTEGRATIVE RESEARCH LABORATORIES SWEDEN AB, priority 2011, dated 2015):

Test system: DOPAC (3,4-dihydroxyphenylacetic acid) in the rat striatum
Assay: Increase of DOPAC (3,4-dihydroxyphenylacetic acid) in the rat striatum after systemic administration
Format: in vivo
Conditions: sc, estimated ED50 on increase of DOPAC in rat striatum, dose range 0-100 μmol/kg s.c., curve fitting
From the text: The increased turnover of dopamine in the terminal areas of the ascending dopaminergic projections of the mammalian brain can be illustrated by measuring of changes in biochemical indices in the brain with the characteristic features of dopamine antagonists, e.g. producing increases in concentrations of dopamine metabolites such as 3,4-dihydroxyphenyl-acetic acid (DOPAC) in the striatum.
After the behavioural activity sessions, the rats are decapitated and their brains rapidly taken out and put on an ice-cold petri-dish. The limbic forebrain, the striatum, the frontal cortex and the remaining hemispheral parts of each rat are dissected and frozen. Each brain part is subsequently analyzed with respect to its content of monoamines and their metabolites.
The monoamine transmitter substances (NA (noradrenaline), DA (dopamine), 5-HT (serotonin)) as well as their amine (NM (normethanephrine), 3-MT (3-methoxytyramine)) and acid (DOPAC (3,4-dihydroxyphenylacetic acid), 5-HIAA (5-hydroxyindoleacetic acid), HVA (homovanillic acid)) metabolites are quantified in brain tissue homogenates by HPLC separations and electrochemical detection
The analytical method is based on two chromatographic separations dedicated for amines or acids. Two chromatographic systems share a common auto injector with a 10-port valve and two sample loops for simultaneous injection on the two systems. Both systems are equipped with a reverse phase column (Luna C18(2), dp 3 μm, 50×2 mm i.d., Phenomenex) and electrochemical detection is accomplished at two potentials on glassy carbon electrodes (MF-1000, Bioanalytical Systems, Inc.). The column effluent is passed via a T-connection to the detection cell or to a waste outlet. This is accomplished by two solenoid valves, which block either the waste or detector outlet. By preventing the chromatographic front from reaching the detector, better detection conditions are achieved. The aqueous mobile phase (0.4 ml/min) for the acid system contains citric acid 14 mM, sodium citrate 10 mM, MeOH 15% (v/v) and EDTA 0.1 mM. Detection potentials relative to Ag/AgCl reference are 0.45 and 0.60V. […] Detection potentials relative to Ag/AgCl reference are 0.45 and 0.65V.
ED50 value for the increase of DOPAC in striatum is calculated by curve fitting. The evaluation is based on 40 animals over the dose range 0, 3.7, 11, 33 and 100 μmol/kg s.c. in two combined experiments. The DOPAC levels are normalised to control and fitted by least square minimization to the function “End-(End-Control)/(1+(dose/ED50)^slope)”. The four parameters (Control, End, ED50 and Slope) are fitted with the restrictions: ED50>0, 0.5<Slope<3, 350<End<400% of control. To estimate confidence levels for the parameters, the fit is repeated 100 times with a random evenly distributed squared weight (0 to 1) for every measurement value. Presented ED50-ranges cover 95% of these values.

Structure (SMILES): CCCNCCOc1cc(F)cc(S(C)(=O)=O)c1 [Example 1, N-[2-(3-fluoro-5-methylsulfonyl-phenoxy)ethyl]propan-1-amine]
- ED50: 8.5 µmol/kg
